Source: patent US20240374535A1, “COMPOSITIONS AND METHODS FOR TREATING BIOFILM DISORDERS AND INFECTIONS” (AHV International B.V., priority 2021, published 2024)
pIC50: −log10 of the molar value.

How the values were obtained:
udder cleft wound = experiment: In vivo udder cleft dermatitis test: wound assessment after spray treatment; design: species or system cow; conditions: for inflammation of the udder cleft wound after treatment: immediately after the treatment, later infection reduced and wound healed; for Conclusion (effect on udder cleft wound): over 60 days, all cows of the group
[1] = test system: cows with a SCC of more as 250.000 cells/ml; experiment: In vivo mastitis test: somatic cell count (SCC) in milk after a single oral tablet; design: species or system cow; conditions: single oral tablet (10 g), 60 days, FIG. 1
Description: Experiments were performed to examine the effect of compounds on the cell count or somatic cell count (SCC) in milk.
Somatic cell counts (SCC) is related to the amount of pathogens that are in the quarter visible for the immune system. The cell count of each cow was measured with the milk production registration (MPR). This MPR is done periodically every 30-40 days at all farms. The Somatic Cell Count (SCC) is a main indicator of milk quality. The majority of somatic cells are leukocytes (white blood cells)—which become present in increasing numbers in milk usually as an immune response to a mastitis-causing pathogen—and a small number of epithelial cells, which are milk-producing cells shed from inside of the udder when an infection occurs.
The SCC data was extracted from milk production registrations (MPRs). MPRs are databases showing all details (e.g. SCC) of the produced milk per individual cow. MPRs of the selected farms were available periodically. SCC is quantified as the number of cells per ml of milk. In general terms: an individual cow with a value for SCC of 100,000 or less indicates an ‘uninfected’ cow and there were no significant production losses due to subclinical mastitis. A threshold SCC above 250,000 indicates infection and counts between 100,000 to 250,000 indicate a high risk of infection.
The experiments were performed on a farm with 90 cows. Examination was performed on cell count with the above described tablets during 60 days.
Cows with a SCC of more as 250.000 cells/ml before treatment were selected for administration of a single tablet.

[2] = test system: Staphylococcus epidermis ATCC 35984 biofilm; experiment: MBIC assay (biofilm inhibition, crystal violet); assay type: cell-based, S. epidermidis; conditions: 48 h incubation, absorbance 540 nm
Description: (§1) The exact weighed amount was noted and the volume of solvent to reach a 80 mM dilution calculated. Half of the volume was added first, by adding Tween 80. In a second step, the other half of the volume DMSO was added and the closed tube inverted 5-10 times and then vortexed very thoroughly for at least 30 seconds. If after this procedure unsolved material was still visible, the tube was placed in a shaker at 37° C. at 150 rpm for at least 30 minutes. […] For the MBEC assay (method 1.3) the solution needs to be diluted to a final concentration of 2 mM in 0.9% saline solution and then further diluted to 1 mM, 0.5 mM, 0.25 mM and 0.125 mM in saline. Those dilutions were added as treatment to the 96 well plates with the grown biofilm (see method 3).
(§2) Frozen aliquots of Staphylococcus epidermis ATCC 35984 and Pseudomonas aeruginosa ATCC 27853 were used to inoculate a tryptic soy agar (TSA) plate and were incubated overnight at 37° C. After incubation 3-5 well-isolated colonies with the same morphology were selected from the TSA plate and resuspended in 2 mL 0.9% saline solution with 3-6 glass beads and vortexed. The optical density of the bacterial suspension was measured at 600 nm (OD600) with a spectrophotometer (Evolution™ 201/220 UV-Visible Spectrophotometer, Thermo Fisher Scientific) and diluted to an OD600 of 0.2. The MBIC assay was performed in a 96-microtiter plate. 50 μL of TSB was added into columns 2-11, and 100 μL to column 12 for sterility control. 100 μL of the 8 mM test compound solution (method 1) was added to column 1. A two-fold dilution series of the solution in TSB was achieved by resuspending 50 μL of the 8 mM solution from column 1 in column 2. This step was repeated until column 10. The respective concentration of Tween 80 and DMSO in column 1 is at 2.5%, which is two-fold diluted throughout the plate. 50 μL of the bacterial suspension was added to column 1-11. The microtiter plates were sealed with adhesive polyethylene film for sealing microplates (Diversified Biotech) and incubated for 48 h at 37° C. After incubation the supernatant is carefully removed and the well with the biofilm washed for one time with 100 μL 0.9% saline solution. 100 μL 0.1 M HCl was added and incubated for 1 h at room temperature to fix the biofilm. After incubation the HCl was removed and 100 μL crystal violet (0.1% v/v in water) was added and incubated for 30 min at room temperature. The unbound crystal violet was removed and the wells washed one time with 100 μL demineralized water. 100 μL 30% acetic acid was added and incubated for 1 h at 37° C. and 150 rpm. The solution was resuspended and transferred to a flat-bottom 96-well plate and the absorbance measured at 540 nm with the spectrophotometer. This assay was repeated two times in two independent experiments.

[3] = test system: Staphylococcus epidermis ATCC 35984; experiment: MIC assay (planktonic growth inhibition, OD600); assay type: cell-based, S. epidermidis; conditions: 24 h at 37° C.
Summary of the method: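 Broth microdilution in MHB-II, two-fold series from 8 mM stock solution (Tween 80/DMSO co-diluted, 2.5% in top well). Inoculum from overnight TSA colonies adjusted to OD600 0.0008 (~10^6 CFU/mL); 24 h at 37° C., growth read as OD600; three independent experiments.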

[4] = test system: Pseudomonas aeruginosa ATCC 27853 biofilm; experiment: MBIC assay (biofilm inhibition, crystal violet); assay type: cell-based, P. aeruginosa; conditions: 48 h incubation, absorbance 540 nm
Description: as §1, §2

Compound	inflammation of the udder cleft wound after treatment (udder cleft wound)	Conclusion (effect on udder cleft wound) (udder cleft wound)	somatic cell count (SCC) of milk [1]	S. epidermidis MBIC90 [2]	pIC50 ([3]; minimal concentration reducing final OD600 by 50%, read-out: S. epidermidis MIC50)	IC90 ([3]; minimal concentration reducing final OD600 by 90%, read-out: S. epidermidis MIC90)	P. aeruginosa MBIC90 [4]	S. epidermidis MIC50 ([3]; minimal concentration reducing final OD600 by 50%)	S. epidermidis MIC90 ([3]; minimal concentration reducing final OD600 by 90%)
CCCS[S+]([O-])CCC (centres unmarked) [Di-n-propyl thiosulfinate, S-propyl propane-1-sulfinothioate]	fast inflammation reduction	Positive effect	significantly decreased	>4 mM	3.60	500 µM	2 mM	–	–
CSS(C)(=O)=O [Di-methyl thiosulfonate, methyl methane thiosulfonate]	fast inflammation reduction	Positive effect	significantly decreased	>4 mM	–	–	4 mM	250 µM	250 µM
